Active and inactive are the calls of the source. The rule behind the calls is not given here.

Test [1] concerns the target Ephrin type-B receptor 4 (Homo sapiens) (UniProt P54760). The test can be described thus: Inhibition of recombinant human N-terminal His6-tagged EPHB4 (561 to 987 residues) expressed in baculovirus infected Sf21 cells assessed as remaining activity at 1 uM using Poly (Glu,Tyr) as substrate incubated for 30 mins in presence of [gamma-33P]ATP by filter binding method relative to control.

Test [2] concerns the target Protein kinase C zeta type (Homo sapiens) (UniProt Q05513). The test can be described thus: Inhibition of recombinant human N-terminal His6-tagged PKCzeta (2 to 592 residues) expressed in baculovirus infected Sf21 cells assessed as remaining activity at 1 uM using ERMRPRKRQGSVRRV as substrate incubated for 30 mins in presence of [gamma-33P]ATP by filter binding method relative to control.

In test [3] the target is STE20/SPS1-related proline-alanine-rich protein kinase (Homo sapiens) (UniProt Q9UEW8). The test can be described thus: Inhibition of human STK39 at 1 uM using RBER-CDC25tide as substrate in presence of 33P-ATP by ProQinase assay.
The species named for test [4] is Homo sapiens. The test can be described thus: Inhibition of human CDK1/CycA2 at 1 uM using RBER-CHKtide as substrate in presence of 33P-ATP by ProQinase assay.
Test [5] addresses Serine/threonine-protein kinase 17A (Homo sapiens) (UniProt Q9UEE5). The test can be described thus: Inhibition of human STK17A at 1 uM using RB-CTF as substrate in presence of 33P-ATP by ProQinase assay.
Test [6] addresses Leukocyte tyrosine kinase receptor (Homo sapiens) (UniProt P29376). The test can be described thus: Inhibition of human LTK at 1 uM using polyEY as substrate in presence of 33P-ATP by ProQinase assay.
The subject of test [7] is U2OS. The test can be described thus: Inhibition of PI3K in human U2OS cells expressing GFP-PHAkt1 assessed as reduction in IGF-stimulated PtdIns(3,4,5)P3/PtdIns(3,4)P2 level […] at 1 uM pre incubated for 1 hr followed by IGF stimulation and measured after 15 mins by Alexa Fluor 488 staining based fluorescence microscopic analysis. Format: subcellular. To be noted: time 1.25 hrs.

Test [8] has as its target Rho-associated protein kinase 2 (Homo sapiens) (UniProt O75116). The test can be described thus: Inhibition of human ROCK2 at 1 uM using RB-S6P as substrate in presence of 33P-ATP by ProQinase assay.
Test [9] has as its target Ribosomal protein S6 kinase beta-2 (Homo sapiens) (UniProt Q9UBS0). The test can be described thus: Inhibition of human S6K-beta at 1 uM using RBER-CHKtide as substrate in presence of 33P-ATP by ProQinase assay.
Test [10] concerns the target Eukaryotic elongation factor 2 kinase (Homo sapiens) (UniProt O00418). The test can be described thus: Inhibition of recombinant human N-terminal GST-tagged EF2K (2 to 725 residues) expressed in Escherichia coli assessed as remaining activity at 1 uM using RKKFGESKTKTKEFL as substrate incubated for 30 mins in presence of [gamma-33P]ATP by filter binding method relative to control.

Test [11] has as its target Serine/threonine-protein kinase PAK 4 (Homo sapiens) (UniProt O96013). The test can be described thus: Inhibition of human PAK4 at 1 uM using bio-4xCHKT as substrate in presence of 33P-ATP by ProQinase assay.
The target of test [12] is Ephrin type-A receptor 3 (Homo sapiens) (UniProt P29320). The test can be described thus: Inhibition of human EPHA3 at 1 uM using polyEY as substrate in presence of 33P-ATP by ProQinase assay.
Test [13] deals with Serine/threonine-protein kinase Nek7 (Homo sapiens) (UniProt Q8TDX7). The test can be described thus: Inhibition of human NEK7 at 1 uM using casein as substrate in presence of 33P-ATP by ProQinase assay.
Test [14] concerns the target Mitogen-activated protein kinase kinase kinase 20 (Homo sapiens) (UniProt Q9NYL2). The test can be described thus: Inhibition of human ZAK at 1 uM using MBP as substrate in presence of 33P-ATP by ProQinase assay.
The target of test [15] is Diacylglycerol kinase kappa (Homo sapiens) (UniProt Q5KSL6). The test can be described thus: Inhibition of DGKkappa (unknown origin) at 1 uM.
Test [16] deals with T1, 3-phosphoinositide-dependent protein kinase 1 (Homo sapiens) (UniProt O15530).
T1 sequence (whole entry): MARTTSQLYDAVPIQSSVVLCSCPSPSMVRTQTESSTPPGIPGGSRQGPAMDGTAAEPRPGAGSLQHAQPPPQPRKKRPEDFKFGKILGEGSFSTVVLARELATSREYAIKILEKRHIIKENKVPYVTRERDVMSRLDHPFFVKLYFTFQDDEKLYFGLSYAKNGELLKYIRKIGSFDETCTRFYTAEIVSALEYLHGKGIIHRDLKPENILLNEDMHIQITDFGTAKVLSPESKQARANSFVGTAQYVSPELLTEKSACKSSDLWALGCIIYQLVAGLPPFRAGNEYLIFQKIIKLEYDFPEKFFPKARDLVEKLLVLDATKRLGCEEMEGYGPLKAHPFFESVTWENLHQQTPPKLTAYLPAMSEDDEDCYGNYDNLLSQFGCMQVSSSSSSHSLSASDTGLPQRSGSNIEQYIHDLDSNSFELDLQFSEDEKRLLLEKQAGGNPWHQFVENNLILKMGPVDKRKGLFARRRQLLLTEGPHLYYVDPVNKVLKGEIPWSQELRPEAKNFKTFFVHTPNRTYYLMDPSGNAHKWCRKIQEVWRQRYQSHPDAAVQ
The test can be described thus: Inhibition of human PDK1 at 1 uM using bio-4xCHKT as substrate in presence of 33P-ATP by ProQinase assay.

Test [17] has as its target MAP/microtubule affinity-regulating kinase 4 (Homo sapiens) (UniProt Q96L34). The test can be described thus: Inhibition of human MARK4 at 1 uM using RBER-CHKtide as substrate in presence of 33P-ATP by ProQinase assay.
Test [18] addresses Ephrin type-A receptor 2 (Homo sapiens) (UniProt P29317). The test can be described thus: Inhibition of recombinant human N-terminal GST-tagged EPHA2 (591 to 976 residues) expressed in Escherichia coli assessed as remaining activity at 1 uM using Poly (Glu,Tyr) as substrate incubated for 30 mins in presence of [gamma-33P]ATP by filter binding method relative to control.
The target in test [19] is Tyrosine-protein kinase CSK (Homo sapiens) (UniProt P41240). The test can be described thus: Inhibition of recombinant human N-terminal GST-tagged CSK (1 to 450 residues) expressed in Escherichia coli assessed as remaining activity at 1 uM Cdc2 peptide as substrate incubated for 30 mins in presence of [gamma-33P]ATP by filter binding method relative to control.
Test [20] has as its target Platelet-derived growth factor receptor alpha (Homo sapiens) (UniProt P16234). The test can be described thus: Inhibition of human PDGFRalpha at 1 uM using Poly(Ala,Glu,Lys,Tyr) as substrate in presence of 33P-ATP by ProQinase assay.

Tyrosine-protein kinase CSK (Homo sapiens), sequence (P41240 2-450 limits assumed): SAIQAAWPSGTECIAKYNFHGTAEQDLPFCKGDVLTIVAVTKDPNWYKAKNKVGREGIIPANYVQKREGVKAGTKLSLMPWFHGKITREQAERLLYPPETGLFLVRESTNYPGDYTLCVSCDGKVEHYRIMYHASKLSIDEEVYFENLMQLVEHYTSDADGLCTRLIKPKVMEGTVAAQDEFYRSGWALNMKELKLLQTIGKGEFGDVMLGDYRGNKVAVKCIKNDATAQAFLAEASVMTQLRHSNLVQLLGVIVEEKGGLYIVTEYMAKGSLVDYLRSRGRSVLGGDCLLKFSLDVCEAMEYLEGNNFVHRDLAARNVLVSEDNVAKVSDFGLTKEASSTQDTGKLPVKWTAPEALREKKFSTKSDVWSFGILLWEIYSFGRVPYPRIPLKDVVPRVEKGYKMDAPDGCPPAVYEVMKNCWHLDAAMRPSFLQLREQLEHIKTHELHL
Diacylglycerol kinase kappa (Homo sapiens), sequence (Q5KSL6 whole entry): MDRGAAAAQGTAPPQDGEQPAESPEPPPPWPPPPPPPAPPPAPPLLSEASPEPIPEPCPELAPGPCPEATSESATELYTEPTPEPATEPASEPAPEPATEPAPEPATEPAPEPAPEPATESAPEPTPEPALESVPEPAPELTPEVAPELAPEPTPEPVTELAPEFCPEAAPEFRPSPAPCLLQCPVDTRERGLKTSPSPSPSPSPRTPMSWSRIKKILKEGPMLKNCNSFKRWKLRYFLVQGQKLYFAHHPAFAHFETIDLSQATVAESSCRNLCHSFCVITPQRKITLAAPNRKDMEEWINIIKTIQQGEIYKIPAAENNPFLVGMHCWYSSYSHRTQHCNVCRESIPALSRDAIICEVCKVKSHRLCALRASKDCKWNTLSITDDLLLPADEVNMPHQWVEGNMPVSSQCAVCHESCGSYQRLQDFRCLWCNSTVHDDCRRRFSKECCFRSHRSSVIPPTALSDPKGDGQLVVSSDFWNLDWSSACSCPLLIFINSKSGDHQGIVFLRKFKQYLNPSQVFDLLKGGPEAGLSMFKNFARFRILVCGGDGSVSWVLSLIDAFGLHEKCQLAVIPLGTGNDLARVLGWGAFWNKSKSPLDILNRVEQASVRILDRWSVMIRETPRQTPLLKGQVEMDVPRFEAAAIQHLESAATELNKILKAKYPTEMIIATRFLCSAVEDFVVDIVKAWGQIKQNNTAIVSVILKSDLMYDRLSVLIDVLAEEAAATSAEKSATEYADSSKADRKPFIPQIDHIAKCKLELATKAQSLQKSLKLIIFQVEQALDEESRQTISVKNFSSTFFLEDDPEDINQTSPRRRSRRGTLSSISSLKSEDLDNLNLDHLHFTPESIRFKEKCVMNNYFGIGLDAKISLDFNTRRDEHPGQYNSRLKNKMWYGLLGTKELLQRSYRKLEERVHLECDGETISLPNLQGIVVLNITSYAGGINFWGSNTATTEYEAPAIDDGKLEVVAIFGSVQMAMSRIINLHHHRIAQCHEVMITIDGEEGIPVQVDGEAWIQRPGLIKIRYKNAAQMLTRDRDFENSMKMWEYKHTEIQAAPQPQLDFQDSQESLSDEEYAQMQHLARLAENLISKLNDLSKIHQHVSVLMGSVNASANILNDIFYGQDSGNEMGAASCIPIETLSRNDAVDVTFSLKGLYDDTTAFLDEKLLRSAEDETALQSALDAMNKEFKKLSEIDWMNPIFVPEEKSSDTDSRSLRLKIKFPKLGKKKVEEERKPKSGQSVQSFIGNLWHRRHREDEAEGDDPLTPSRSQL
Platelet-derived growth factor receptor alpha (Homo sapiens), sequence (P16234 whole entry): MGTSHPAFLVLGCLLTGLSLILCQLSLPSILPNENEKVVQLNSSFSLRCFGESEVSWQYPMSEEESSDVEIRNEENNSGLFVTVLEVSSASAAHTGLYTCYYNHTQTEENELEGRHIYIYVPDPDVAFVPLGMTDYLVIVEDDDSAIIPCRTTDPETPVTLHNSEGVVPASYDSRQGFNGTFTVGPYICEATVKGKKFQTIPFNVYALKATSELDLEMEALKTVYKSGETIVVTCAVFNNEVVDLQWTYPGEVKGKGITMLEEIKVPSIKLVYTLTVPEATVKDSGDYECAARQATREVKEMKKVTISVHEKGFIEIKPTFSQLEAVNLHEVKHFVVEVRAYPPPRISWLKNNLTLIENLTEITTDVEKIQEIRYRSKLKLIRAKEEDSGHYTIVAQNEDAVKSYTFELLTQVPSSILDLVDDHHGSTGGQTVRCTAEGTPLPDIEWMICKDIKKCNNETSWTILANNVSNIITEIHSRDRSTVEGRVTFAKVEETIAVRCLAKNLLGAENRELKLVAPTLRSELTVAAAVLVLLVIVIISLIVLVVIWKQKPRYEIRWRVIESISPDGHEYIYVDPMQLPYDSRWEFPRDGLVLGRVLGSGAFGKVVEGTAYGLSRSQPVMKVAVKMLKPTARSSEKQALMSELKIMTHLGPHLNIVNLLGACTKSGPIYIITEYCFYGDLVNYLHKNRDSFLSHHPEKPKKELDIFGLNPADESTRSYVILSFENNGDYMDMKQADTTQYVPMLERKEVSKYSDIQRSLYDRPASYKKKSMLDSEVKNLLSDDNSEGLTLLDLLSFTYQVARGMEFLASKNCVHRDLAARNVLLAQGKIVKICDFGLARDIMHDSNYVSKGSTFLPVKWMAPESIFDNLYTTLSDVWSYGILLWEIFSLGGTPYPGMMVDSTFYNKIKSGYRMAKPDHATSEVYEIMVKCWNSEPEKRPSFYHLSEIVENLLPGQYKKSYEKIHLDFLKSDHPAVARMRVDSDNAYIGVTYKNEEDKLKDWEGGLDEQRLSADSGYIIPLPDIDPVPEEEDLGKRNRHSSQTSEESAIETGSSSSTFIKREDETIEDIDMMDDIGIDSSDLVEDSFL
Leukocyte tyrosine kinase receptor (Homo sapiens), sequence (P29376 whole entry): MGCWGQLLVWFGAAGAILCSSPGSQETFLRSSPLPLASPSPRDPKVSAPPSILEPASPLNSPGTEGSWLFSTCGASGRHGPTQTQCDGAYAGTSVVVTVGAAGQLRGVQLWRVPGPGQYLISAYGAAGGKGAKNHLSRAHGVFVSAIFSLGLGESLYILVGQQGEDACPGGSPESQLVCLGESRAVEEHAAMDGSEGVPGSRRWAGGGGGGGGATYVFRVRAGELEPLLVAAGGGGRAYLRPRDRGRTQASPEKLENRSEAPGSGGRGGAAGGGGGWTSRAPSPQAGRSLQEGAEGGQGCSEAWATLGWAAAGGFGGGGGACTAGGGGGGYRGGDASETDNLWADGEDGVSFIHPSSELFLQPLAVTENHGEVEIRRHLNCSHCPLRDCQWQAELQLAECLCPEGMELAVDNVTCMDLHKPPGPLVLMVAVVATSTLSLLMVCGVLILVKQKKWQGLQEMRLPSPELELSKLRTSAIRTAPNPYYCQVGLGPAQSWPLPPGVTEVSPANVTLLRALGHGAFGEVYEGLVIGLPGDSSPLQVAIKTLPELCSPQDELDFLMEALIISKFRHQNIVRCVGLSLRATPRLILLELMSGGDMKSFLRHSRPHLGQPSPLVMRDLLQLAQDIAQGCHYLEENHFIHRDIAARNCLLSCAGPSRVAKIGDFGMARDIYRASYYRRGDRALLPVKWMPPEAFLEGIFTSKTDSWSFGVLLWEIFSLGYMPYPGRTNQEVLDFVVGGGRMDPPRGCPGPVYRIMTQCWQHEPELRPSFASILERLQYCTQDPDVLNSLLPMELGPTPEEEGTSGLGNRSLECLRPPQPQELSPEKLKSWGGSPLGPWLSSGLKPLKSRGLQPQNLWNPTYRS
Rho-associated protein kinase 2 (Homo sapiens), sequence (O75116 whole entry, looked up): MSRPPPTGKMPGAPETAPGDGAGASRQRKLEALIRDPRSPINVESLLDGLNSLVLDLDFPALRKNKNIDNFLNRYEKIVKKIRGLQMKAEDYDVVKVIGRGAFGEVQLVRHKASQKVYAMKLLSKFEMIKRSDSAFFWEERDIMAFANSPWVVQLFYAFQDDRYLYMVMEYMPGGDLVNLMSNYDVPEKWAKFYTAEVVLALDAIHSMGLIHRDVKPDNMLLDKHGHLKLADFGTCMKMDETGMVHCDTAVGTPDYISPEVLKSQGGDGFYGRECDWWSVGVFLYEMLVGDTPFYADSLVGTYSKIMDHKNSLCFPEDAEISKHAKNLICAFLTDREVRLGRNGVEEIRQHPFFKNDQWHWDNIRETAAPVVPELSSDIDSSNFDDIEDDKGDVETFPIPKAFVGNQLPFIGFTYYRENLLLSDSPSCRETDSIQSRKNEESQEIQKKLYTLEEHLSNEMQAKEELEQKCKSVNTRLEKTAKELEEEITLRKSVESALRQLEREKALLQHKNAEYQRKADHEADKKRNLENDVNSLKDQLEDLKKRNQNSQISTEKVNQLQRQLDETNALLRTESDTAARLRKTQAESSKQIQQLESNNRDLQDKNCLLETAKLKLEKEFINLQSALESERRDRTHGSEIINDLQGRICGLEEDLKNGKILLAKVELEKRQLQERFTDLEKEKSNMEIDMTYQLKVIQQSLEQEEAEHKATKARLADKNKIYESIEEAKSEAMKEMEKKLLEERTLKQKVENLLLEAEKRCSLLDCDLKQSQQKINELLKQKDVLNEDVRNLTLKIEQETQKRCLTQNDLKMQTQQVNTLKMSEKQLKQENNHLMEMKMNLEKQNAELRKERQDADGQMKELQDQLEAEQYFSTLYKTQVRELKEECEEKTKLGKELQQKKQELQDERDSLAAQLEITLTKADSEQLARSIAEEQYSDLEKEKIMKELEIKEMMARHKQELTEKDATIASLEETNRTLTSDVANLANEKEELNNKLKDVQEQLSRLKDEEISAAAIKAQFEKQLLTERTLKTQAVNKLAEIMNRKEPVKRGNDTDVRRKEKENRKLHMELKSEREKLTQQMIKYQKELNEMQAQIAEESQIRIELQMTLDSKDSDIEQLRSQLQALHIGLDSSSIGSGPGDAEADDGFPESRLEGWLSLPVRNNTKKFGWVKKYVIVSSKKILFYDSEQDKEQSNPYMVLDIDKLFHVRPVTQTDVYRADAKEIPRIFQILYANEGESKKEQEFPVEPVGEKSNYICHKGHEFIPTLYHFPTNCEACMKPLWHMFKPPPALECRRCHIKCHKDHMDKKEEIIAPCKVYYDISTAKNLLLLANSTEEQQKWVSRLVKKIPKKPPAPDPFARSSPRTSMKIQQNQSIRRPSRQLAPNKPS

Turning to `CC(C)(O)CNc1ncc(-c2ccnc(Nc3ccnc(Cl)c3)n2)c(CC2CC2)n1`, the Activity in test [1] worked out at 106%; in [2], 103%; in [10], 115%; in test [18], 101%; in [19], 132%. For the same molecule, the inhibition entry in test [3], in test [4], in [5], in [6], in [7] and in [8] was “inactive” in each case. Moreover, the inhibition entry in test [9], in test [11], in test [12], in test [13], in [14] and in [15] was “inactive” each time. For the same molecule, the inhibition result in [16], in test [17] and in test [20] was “inactive” each time.

The record behind these values is ChEMBL document CHEMBL5705899 (Biochem J, 2014).
